Measured values as given in article PMC7944402, “Resin-acid derivatives bind to multiple sites on the voltage-sensor domain of the Shaker potassium channel” (The Journal of General Physiology, 2021).
Where “and” joins values, the source holds several entries; their conditions need not be identical. Equal values may be shown once.

Legend:
Format in all cases: cell-based
[1] = molecular target: T1, Shaker KV channel R362Q/W454A/F416A (Drosophila melanogaster, UniProt P08510, DEL6-46/F416A/R362Q/W454A); experiment: Two-electrode voltage clamp in Xenopus oocytes: R362Q/W454A/F416A; settings: 100 μM
T1 construct: expressed in transfected cells; host or cells: Xenopus laevis oocytes (RNA injection)
Source text: (§1) The Shaker H4 channel (GenBank accession no. NM_167595.3; [Kamb et al., 1987]), with removed N-type inactivation due to a Δ6-46 deletion (ShH4IR, in Bluescript II KS(+) plasmid; [Hoshi et al., 1990]), is referred to as the WT Shaker KV channel. Addition of two positively charged arginines (M356R/A359R) at the extracellular top of the voltage sensor increases the effect of charged lipophilic compounds ([Ottosson et al., 2014], [2015], [2017]). […] However, for the resin-acid derivatives studied in the present investigation, R362 reduced the effect. Therefore, we specifically refer to the two added arginines just outside S4 (M356R/A359R) as the 2R motif. Mutations were introduced with site-directed mutagenesis and verified with sequencing as described previously ([Börjesson et al., 2010]). RNA injection and oocyte handling were performed as before ([Börjesson et al., 2010]; [Ottosson et al., 2015]). All animal experiments were approved by the Linköping’s local Animal Care and Use Committee.
(§2) Electrophysiological experiments were made 1–6 d after RNA injection. K^+ currents were measured with the two-electrode voltage-clamp technique (GeneClamp 500B amplifier; Axon Instruments) as described previously ([Ottosson et al., 2015]; [Silverå Ejneby et al., 2018]). […]
(§3) The conductance, G(V), was calculated as G(V)=I/(V−VK), (1) where I is the steady-state current measured at the end of each test-voltage sweep (100 ms after onset; Clampfit 10.5; Molecular Devices), V is the absolute membrane voltage, and VK is the reversal potential for K^+ ions (set to −80 mV). […] The resin-acid–induced G(V) shift was calculated as V1/2 (compound) − V1/2 (control). The relative change in GMAX was calculated as GMAX (compound) / GMAX (control). The concentration dependence for the G(V) shifts was calculated as ΔV= ΔVMAX/(1 +EC50/c), (3) where ΔV is the voltage shift, ΔVMAX is the voltage shift at saturating concentration, c is the concentration of the tested compound, and EC50 is the concentration at which half-maximum response occurs.

[2] = molecular target: T2, Shaker KV channel with the 2R motif (M356R/A359R) (Drosophila melanogaster, UniProt P08510, A359R/DEL6-46/M356R); experiment: Two-electrode voltage clamp in Xenopus oocytes: 2R motif channel
T2 construct: expressed in transfected cells; host or cells: Xenopus laevis oocytes (RNA injection)
Source text: The Shaker H4 channel (GenBank accession no. NM_167595.3; [Kamb et al., 1987]), with removed N-type inactivation due to a Δ6-46 deletion (ShH4IR, in Bluescript II KS(+) plasmid; [Hoshi et al., 1990]), is referred to as the WT Shaker KV channel. […] Therefore, we specifically refer to the two added arginines just outside S4 (M356R/A359R) as the 2R motif. Mutations were introduced with site-directed mutagenesis and verified with sequencing as described previously ([Börjesson et al., 2010]). RNA injection and oocyte handling were performed as before ([Börjesson et al., 2010]; [Ottosson et al., 2015]). All animal experiments were approved by the Linköping’s local Animal Care and Use Committee.
(§4) Electrophysiological experiments were made 1–6 d after RNA injection. K^+ currents were measured with the two-electrode voltage-clamp technique (GeneClamp 500B amplifier; Axon Instruments) as described previously ([Ottosson et al., 2015]; [Silverå Ejneby et al., 2018]). The amplifier’s leak compensation was used, and the currents were low-pass filtered at 5 kHz. The control solution contained (in mM) 88 NaCl, 1 KCl, 15 HEPES, 0.4 CaCl2, and 0.8 MgCl2, and pH was set with NaOH. All experiments were made at room temperature (20°C–23°C). The holding potential was set to −80 mV (or −100 mV if the mutant was not fully closed at −80 mV).
(§5) Stock solutions were stored at −20°C and diluted in control solution just before experiments. The test solution was added to the oocyte bath manually with a syringe. […] To make sure all Wu50 molecules were negatively charged, the pH of the control solution was set to 9.0 before the experiments.
The conductance, G(V), was calculated as G(V)=I/(V−VK), (1) where I is the steady-state current measured at the end of each test-voltage sweep (100 ms after onset; Clampfit 10.5; Molecular Devices), V is the absolute membrane voltage, and VK is the reversal potential for K^+ ions (set to −80 mV). The conductance was fitted with a Boltzmann equation (GraphPad Prism 5; GraphPad Software, Inc.) GK(V)=GMAX/{1+exp[(V½−V)/s]}, (2) where GMAX is the amplitude (maximal conductance) of the curve, V is the absolute membrane voltage, V1/2 is the midpoint, and s is the slope. The resin-acid–induced G(V) shift was calculated as V1/2 (compound) − V1/2 (control). The relative change in GMAX was calculated as GMAX (compound) / GMAX (control). The concentration dependence for the G(V) shifts was calculated as ΔV= ΔVMAX/(1 +EC50/c), (3) where ΔV is the voltage shift, ΔVMAX is the voltage shift at saturating concentration, c is the concentration of the tested compound, and EC50 is the concentration at which half-maximum response occurs.

[3] = molecular target: T3, Shaker KV channel R362Q/W454A (Drosophila melanogaster, UniProt P08510, DEL6-46/R362Q/W454A); experiment: Two-electrode voltage clamp in Xenopus oocytes: R362Q/W454A; settings: 100 μM, pH 9.0, R362Q/W454A
T3 construct: expressed in transfected cells; host or cells: Xenopus laevis oocytes (RNA injection)
Source text: as §1, with “Mutations were introduced with site-directed mutagenesis and verified with sequencing as described previously ([Börjesson et al., 2010]). RNA injection and oocyte handling were performed as before ([Börjesson et al., 2010]; [Ottosson et al., 2015]). All animal experiments were approved by the Linköping’s local Animal Care and Use Committee.” left out
as §2
The conductance, G(V), was calculated as G(V)=I/(V−VK), (1) where I is the steady-state current measured at the end of each test-voltage sweep (100 ms after onset; Clampfit 10.5; Molecular Devices), V is the absolute membrane voltage, and VK is the reversal potential for K^+ ions (set to −80 mV). […] The resin-acid–induced G(V) shift was calculated as V1/2 (compound) − V1/2 (control). The relative change in GMAX was calculated as GMAX (compound) / GMAX (control). […]

[4] = molecular target: T4, Shaker KV channel M356R/A359R/W454A (Drosophila melanogaster, UniProt P08510, A359R/DEL6-46/M356R/W454A); experiment: Two-electrode voltage clamp in Xenopus oocytes: 2R motif/W454A
T4 construct: expressed in transfected cells; host or cells: Xenopus laevis oocytes (RNA injection)
Source text: as §1, §4
as §5, with “the experiments. This pH change had only small effects on channel kinetics and the G(V) relation.” for “the experiments.”
as §3

[5] = molecular target: T5, Shaker KV channel W454A (Drosophila melanogaster, UniProt P08510, DEL6-46/W454A); experiment: Two-electrode voltage clamp in Xenopus oocytes: W454A; settings: 100 μM, pH 9.0, W454A
T5 construct: expressed in transfected cells; host or cells: Xenopus laevis oocytes (RNA injection)
Source text: as §1, §2, §3

[6] = molecular target: T6, Shaker KV channel R362Q/R365Q (Drosophila melanogaster, UniProt P08510, DEL6-46/R362Q/R365Q); experiment: Two-electrode voltage clamp in Xenopus oocytes: R362Q/R365Q; settings: 100 μM, pH 9.0, R362Q/R365Q
T6 construct: expressed in transfected cells; host or cells: Xenopus laevis oocytes (RNA injection)
Source text: as §1, §2, §3

[7] = molecular target: T7, Shaker KV channel M356R/A359R/R362Q (Drosophila melanogaster, UniProt P08510, A359R/DEL6-46/M356R/R362Q); experiment: Two-electrode voltage clamp in Xenopus oocytes: 2R motif/R362Q
T7 construct: expressed in transfected cells; host or cells: Xenopus laevis oocytes (RNA injection)
Source text: as §1, §4
as §5, with “the experiments. This pH change had only small effects on channel kinetics and the G(V) relation.” for “the experiments.”
as §3

[8] = molecular target: T8, Shaker KV channel R362Q (Drosophila melanogaster, UniProt P08510, DEL6-46/R362Q); experiment: Two-electrode voltage clamp in Xenopus oocytes: R362Q; settings: 100 μM, pH 9.0, R362Q
T8 construct: expressed in transfected cells; host or cells: Xenopus laevis oocytes (RNA injection)
Source text: as §1, §2, §3

[9] = 100 μM, pH 9.0, M356R/A359R (=2R)
[10] = 100 μM, pH 9.0, M356R/A359R/W454A
[11] = 100 μM, pH 9.0, M356R/A359R/R362Q

T2 sequence (P08510 other isoform, or with tags, fused parts or gaps DEL6-46/M356R/A359R): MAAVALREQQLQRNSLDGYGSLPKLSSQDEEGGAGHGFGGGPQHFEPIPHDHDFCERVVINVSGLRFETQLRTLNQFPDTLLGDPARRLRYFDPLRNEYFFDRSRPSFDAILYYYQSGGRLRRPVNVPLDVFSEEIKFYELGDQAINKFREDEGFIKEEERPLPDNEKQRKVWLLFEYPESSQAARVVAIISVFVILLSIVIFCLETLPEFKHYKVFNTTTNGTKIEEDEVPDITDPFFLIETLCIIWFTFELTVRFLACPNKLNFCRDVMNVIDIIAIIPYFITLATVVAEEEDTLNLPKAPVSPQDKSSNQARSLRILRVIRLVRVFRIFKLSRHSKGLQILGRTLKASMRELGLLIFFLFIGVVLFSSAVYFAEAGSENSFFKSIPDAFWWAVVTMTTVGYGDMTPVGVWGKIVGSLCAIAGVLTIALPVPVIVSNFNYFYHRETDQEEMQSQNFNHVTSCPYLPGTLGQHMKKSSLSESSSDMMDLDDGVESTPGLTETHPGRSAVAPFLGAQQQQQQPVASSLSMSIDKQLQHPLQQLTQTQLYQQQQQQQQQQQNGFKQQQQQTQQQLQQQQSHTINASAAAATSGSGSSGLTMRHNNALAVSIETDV
T6 sequence (P08510 other isoform, or with tags, fused parts or gaps DEL6-46/R362Q/R365Q): as the sequence (P08510 other isoform, or with tags, fused parts or gaps DEL6-46/M356R/A359R) above, with R315M, R318A, R321Q, R324Q counted along it
T4 sequence (P08510 with tags, fused parts or gaps DEL6-46/M356R/A359R/W454A): as the sequence (P08510 other isoform, or with tags, fused parts or gaps DEL6-46/M356R/A359R) above, with W413A counted along it
T7 sequence (P08510 other isoform, or with tags, fused parts or gaps DEL6-46/M356R/A359R/R362Q): as the sequence (P08510 other isoform, or with tags, fused parts or gaps DEL6-46/M356R/A359R) above, with R321Q counted along it
T8 sequence (P08510 other isoform, or with tags, fused parts or gaps DEL6-46/R362Q): as the sequence (P08510 other isoform, or with tags, fused parts or gaps DEL6-46/M356R/A359R) above, with R315M, R318A, R321Q counted along it
T5 sequence (P08510 other isoform, or with tags, fused parts or gaps DEL6-46/W454A): as the sequence (P08510 other isoform, or with tags, fused parts or gaps DEL6-46/M356R/A359R) above, with R315M, R318A, W413A counted along it
T3 sequence (P08510 with tags, fused parts or gaps DEL6-46/R362Q/W454A): as the sequence (P08510 other isoform, or with tags, fused parts or gaps DEL6-46/M356R/A359R) above, with R315M, R318A, R321Q, W413A counted along it
T1 sequence (P08510 other isoform, or with tags, fused parts or gaps DEL6-46/R362Q/F416A/W454A): as the sequence (P08510 other isoform, or with tags, fused parts or gaps DEL6-46/M356R/A359R) above, with R315M, R318A, R321Q, F375A, W413A counted along it

In the case of `C[C@@]1(C(=O)O)CCC[C@]2(C)c3cc(Cl)c(Cl)c(Cl)c3CC[C@@H]12` [Wu50], the “GMAX (rel.)” value ([1]; pH 9.0, R362Q/W454A/F416A) is reported as 0.17 rel, the “Reduction of GMAX” value ([1]; R362Q/W454A/F416A, pH 9.0) is reported as 83% and the “G(V) shift, representative recording (Fig. 1 D)” value ([2]; 100 µM, pH 9.0, 2R motif) is reported as −40.7 mV. The “GMAX (rel.)” value [2, 9] was 1.58 rel, the “ΔVG(V) (G(V) shift)” value [2, 9] was −40.0 ± 2.7 mV and -40.0 mV and the “Increase of the maximum G(V) shift by the 2R motif” value ([2]; 2R motif versus WT, Wu50 pH 9.0, Wu161 and Wu181 pH 7.4) was 57%. For the same molecule, the “ΔVMAX (maximum G(V) shift)” value ([2]; 2R motif, pH 9.0, concentration-response (Eq. 3)) was −56.5 ± 2.6 mV, the EC50 ([2]; 2R motif, pH 9.0, concentration-response (Eq. 3), read-out: EC50 of the G(V) shift (apparent affinity)) was 30 ± 5 µM and the “Increase of the G(V) shift by the 2R motif, in the negative direction” value ([2]; magnitude depending on the background mutations, 100 μM, pH 9.0) was 4–32 mV. For the same molecule, the “GMAX (rel.)” value [3] was 1.28 rel, the “ΔVG(V) (G(V) shift)” value [3] was −41.0 ± 4.4 mV and -41.0 mV and the EC50 [4] was 27.9 ± 9.2 µM. The “GMAX (rel.)” value [4, 10] was 1.28 rel, the “ΔVG(V) (G(V) shift)” value [4, 10] was -39.6 mV and the “ΔVMAX (maximum G(V) shift)” value ([4]; 2R motif/W454A, pH 9.0, concentration-response) was −62.3 ± 6.5 mV. The “GMAX (rel.)” value [5] was 0.56 rel, the “ΔVG(V) (G(V) shift)” value [5] was −8.1 ± 0.4 mV and -8.1 mV and the “GMAX (rel.)” value [6] was 0.55 rel. For the same molecule, the “ΔVG(V) (G(V) shift)” value [6] was −25.5 ± 4.6 mV and -25.5 mV, the “G(V) shift, representative recording (Fig. 4 B)” value ([7]; 100 µM, pH 9.0, 2R motif/R362Q) was −59.0 mV and the “GMAX (rel.)” value [7, 11] was 1.93 rel. For the same molecule, the “ΔVG(V) (G(V) shift)” value [7, 11] was −54.0 ± 2.3 mV and -54.0 mV, the “GMAX (rel.)” value [8] was 1.25 rel and the “ΔVG(V) (G(V) shift)” value [8] was −49.6 ± 1.2 mV and -49.6 mV.
